Assay results taken from US20150119352A1, “DINUCELOSIDE POLYPHOSPHATES FOR THE TREATMENT OF PAIN” (GlobalAcorn Ltd., priority 2012, published 2015).
“Also recorded” adds a separate entry of the source. Where two headings read alike, the source gives them in different places.

Legend:
male Wistar rats = assay: Formalin test (nociceptive behaviour, spontaneous jerking of injected paw); assay type: in vivo, rat; settings: for nociceptive behavior after control injection of compound alone: 100 μM (100 μL), no formalin; for IC50: Rattus norvegicus; for IC50 First phase (acute pain), calculated / IC50 Second phase (chronic pain), calculated: Table 1, assuming 40 g rat body weight; for First phase (acute pain) / First phase (acute pain) (μg/kg) / Second phase (chronic pain) / Second phase (chronic pain) (μg/kg): Table 2; for First phase (acute pain) Human (70 kg) nmol / Second phase (chronic pain) Human (70 kg) nmol: Table 2, estimated indicative dose for 70 kg human; for First phase (acute pain) Rat (40 g) nmol / Second phase (chronic pain) Rat (40 g) nmol: Table 2, per 40 g rat; for recalculated effective concentration (second phase): assuming 40 g rat body weight; for number of nocifensive events triggered by the injection of formalin: co-injection 100 μL with formalin
Method: FIG. 6. Effects of subcutaneous Ap4A analogues on pain responses induced by intraplantar (right hindpaw) formalin injection. Rats were subcutaneously injected with formalin solution alone (0.5%, 50 μL, control) or co-injected with the formalin solution and solutions with AppCH2ppA (1 μM-100 μM, 100 μL) or AppNHppA (0.1 μM-100 μM, 100 μL). Age-matched control animals were injected with saline. A. Time-course of the effects of subcutaneous AppCH2ppA (a) and AppNHppA (b) on the number of the spontaneous jerkings of the injected paw. B. Bar-graphs of the effects of AppCH2ppA (a, b) and AppNHppA (c, d) on the integral number of spontaneous jerkings. Measurements were made during the acute phase (0-6 min) and tonic phase (7-45 min) of the formalin response. C. Dose-response curves for AppCH2ppA (a) and AppNHppA (b) during tonic and acute phases.
The formalin test experiments were performed on 21-day old male Wistar rats, weighing 40±5 g according to the method described previously (Simonetti et al, 2006; Yegutkin et al, 2008). Briefly, animal was acclimated to an acrylic observation chamber for at least 1 h before the injection of formalin ([…] of 0.5% solution in 0.9% saline) into the dorsal surface of the right hindpaw. Age-matched control animals were injected with saline (100 μL). Immediately after the injection, each animal was returned to the observation chamber and its behavioural characteristics were recorded for 45 min. We noticed consistently observed type of response: spontaneous jerking of the injected paw. The number of jerks was measured for each […], using self-developed computer software.
The effects of AppNHppA and AppCH2ppA were examined on the behavioral reactions of rats in inflammatory pain models. Injection of diluted formalin into a rodent's hindpaw produces a biphasic nociceptive response consisting of immediate (acute phase) and tonic (inflammatory phase) components. The first phase of a formalin response (i.e. 0-5 min after injection) involves a direct effect of formalin on the pain receptors, while changes in animal behavior during the second tonic phase (i.e. 7-45 min after injection) are caused by hyperalgesia that develops due to the sensitization of nociceptive and spinal neurons via mechanisms that are triggered by repetitive stimulation during the first phase.

[1] = molecular target: T1, rat homomeric P2X2 receptors (Rattus norvegicus, UniProt P49653); assay: Whole-cell patch clamp on HEK cells expressing rat homomeric P2X2 receptors; assay type: cell-based; settings: 1 μM; 10 μM ATP
T1 construct: expressed in transfected cells; host or cells: HEK 293
T1 sequence (P49653 1-472): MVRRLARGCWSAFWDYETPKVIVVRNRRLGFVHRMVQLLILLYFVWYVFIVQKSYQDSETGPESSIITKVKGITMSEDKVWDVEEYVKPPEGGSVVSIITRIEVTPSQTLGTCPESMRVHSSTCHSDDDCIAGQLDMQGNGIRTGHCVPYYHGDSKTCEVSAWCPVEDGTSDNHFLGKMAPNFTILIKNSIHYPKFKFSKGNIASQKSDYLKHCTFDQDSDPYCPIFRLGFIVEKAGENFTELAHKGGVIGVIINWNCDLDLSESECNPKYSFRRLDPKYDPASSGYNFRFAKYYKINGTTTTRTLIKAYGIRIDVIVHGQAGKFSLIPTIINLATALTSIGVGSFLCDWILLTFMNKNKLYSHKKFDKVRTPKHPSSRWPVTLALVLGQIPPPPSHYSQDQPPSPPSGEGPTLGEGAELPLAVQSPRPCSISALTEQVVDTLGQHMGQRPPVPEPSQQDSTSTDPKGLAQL
Method: FIG. 4. […] A. Example traces of responses induced by 10 μM ATP applied for 2 s every 2 min to HEK cells expressing rat homomeric P2X2 receptors in the presence and absence of 1 μM AppNHppA. B. Comparison of currents induced by the full agonist of P2X2 receptors, ATP, in the presence of 1 μM AppNHppA (right) and absence (left). C. The time course of the current in the presence and absence of 1 μM AppNHppA. D. Comparison of currents induced by the full agonist of rat homomeric P2X4 and P2X7 receptors, ATP, in the presence of 1 μM AppNHppA (right) and absence (left). Experiments were performed as in FIG. 2.
Trigeminal, nodose, DRG neurons or HEK cells were recorded in the whole-cell configuration while being continuously superfused (at 2 mL/min) with control solution containing (in mM): 152 NaCl, 5 KCl, 1 MgCl2, 2 CaCl2, 10 glucose, and 10 HEPES; pH was adjusted to 7.4 with NaOH and osmolarity was adjusted to 320 mOsM with glucose. […] Responses to selective P2X3 receptor agonist α,β-methylene-ATP (α,β-meATP; resistant to ectoATPase hydrolysis, Sigma-Aldrich) were measured using an EPC-9 amplifier and HEKA Patch Master software (HEKA Electronik, Germany). Cells were voltage-clamped at −70 mV. In most cells, series resistance was compensated by 80%. […]

[2] = Table 1, concentration, read-out: IC50 First phase (acute pain)
[3] = Table 1, concentration, read-out: IC50 Second phase (chronic pain)
[4] = co-injection (100 μL) with formalin into paw, read-out: IC50 in the first (acute) phase
[5] = co-injection (100 μL) with formalin into paw, read-out: IC50 in the second (tonic) phase

Compound	nociceptive behavior after control injection of compound alone (male Wistar rats)	IC50 (male Wistar rats; [2]) [nM]	IC50 (male Wistar rats; [3]) [nM]	IC50 (male Wistar rats; [4]) [nM]	IC50 (male Wistar rats; [5]) [nM]	IC50 First phase (acute pain), calculated (male Wistar rats) [nmol/kg]	IC50 Second phase (chronic pain), calculated (male Wistar rats)	First phase (acute pain) (male Wistar rats) [nmol/kg]	First phase (acute pain) (μg/kg) (male Wistar rats)	Second phase (chronic pain) (male Wistar rats) [nmol/kg]	Second phase (chronic pain) (μg/kg) (male Wistar rats)	First phase (acute pain) Human (70 kg) nmol (male Wistar rats) [nmol]	Second phase (chronic pain) Human (70 kg) nmol (male Wistar rats) [nmol]	First phase (acute pain) Rat (40 g) nmol (male Wistar rats) [nmol]	Second phase (chronic pain) Rat (40 g) nmol (male Wistar rats) [nmol]	recalculated effective concentration (second phase) (male Wistar rats) [nmolkg]	number of nocifensive events triggered by the injection of formalin (male Wistar rats)	kH, second (tonic) phase (male Wistar rats; co-injection with formalin)	further results
Nc1ncnc2c1ncn2[C@@H]1O[C@H](COP(=O)(O)OP(=O)(O)CP(=O)(O)OP(=O)(O)OC[C@H]2O[C@@H](n3cnc4c(N)ncnc43)C(O)C2O)C(O)C1O (stereo in doubt) [AppCH2ppA]	Lack of nociceptive behavior	32000 ± 2200	510 ± 60	31900 ± 22000	500 ± 60	80 ± 5.5	1.28 + 0.06 nmol/kg	80 ± 5.5	(67) μg/kg	1.28 ± 0.06	(1.067) μg/kg	5600	89.6	3.2	0.0512	1.28±0.06	potently reduced	0.89±0.18	kH, first (acute) phase (male Wistar rats; co-injection with formalin): 0.82±0.09; times more effective reduction of nocifensive behavior in second (tonic) phase compared with first (acute) phase (male Wistar rats; rat, in vivo): 60 times
Nc1ncnc2c1ncn2[C@@H]1O[C@H](COP(=O)(O)OP(=O)(O)NP(=O)(O)OP(=O)(O)OC[C@H]2O[C@@H](n3cnc4c(N)ncnc43)C(O)C2O)C(O)C1O (stereo in doubt) [AppNHppA]	Lack of nociceptive behavior	> 100000	250 ± 90	> 100000	250 ± 60	>250	0.63 ± 0.23 nmol/kg	>250	(209) μg/kg	0.63 ± 0.23	(0.526) μg/kg	17500	44.1	10	0.0252	0.63±0.23	potently reduced	0.89±0.18	effect on P2X2 receptor-mediated currents [1]: not observed to produce any effects; also recorded: non-inhibitory effect
